# In patent US20240366770A1, “DEGRADATION OF BRUTON'S TYROSINE KINASE (BTK) BY CONJUGATION OF BTK INHIBITORS WITH E3 LIGASE LIGAND AND METHODS OF USE” (BeiGene Switzerland GmbH, priority 2021, published 2024):
# What was measured:
# HEK-293 cells = test: HEK-293 cytotoxicity detection (CellTiter-Glo); type: cell-based; settings: Homo sapiens; HEK-293 cells, 72 h incubation, CellTiter-Glo luminescence, IC50 of cell proliferation inhibition; read-out: HEK293
# Procedure: (§1) HEK-293 cells were treated with compounds diluted in 0.2% DMSO, dilution was done according to the following protocol: (1) making 500× stock solution in DMSO from 5 mM by 4-fold dilution, total 8 doses were included; (2) making 2× solution in cell culture medium by transferring 0.5 ul 500× stock solution into 125 μl medium; (3) adding 50 μl of 2× solution to cells for incubation of 72 h.
# 25 μl of the CellTiter-Glo®Reagent [(Promega) -Cat No. G7572] was added to each well in the 96-well plate. The contents were mixed for 2 minutes on an orbital shaker to induce cell lysis. The plate was then allowed to incubate at room temperature for 10 minutes to stabilize luminescent signal. Luminescence was recorded on BMG PheraStar with luminescence protocol.
# The IC50 value of a compound can be obtained by fitting the following equation
# (§2) Wherein, X and Y are known values, and IC50, Hillslope, Top and Bottom are the parameters obtained by fitting with software. Y is the inhibition percentage (calculated from the equation), X is the concentration of the compound; IC50 is the concentration of the compound when the 50% inhibition is reached. The smaller the IC50 value is, the stronger the inhibitory ability of the compound is. Vice versa, the higher the IC50 value is, the weaker the ability the inhibitory ability of the compound is; Hillslope represents the slope of the fitted curve, generally around 1 *; Bottom represents the minimum value of the curve obtained by data fitting, which is generally 0%±20%; Top represents the maximum value of the curve obtained by data fitting, which is generally 100%±20%. The experimental data were fitted by calculating and analyzing with Dotmatics data analysis software.
# BTK = target: T1, BTK (Homo sapiens, UniProt Q06187); test: BTK degradation in TMD-8 cells (HTRF assay); type: cell-based; settings: 6 h treatment, IC50 (DC50) of BTK degradation
# T1 construct: High control=Cell group with added DMSO and without compound, indicating microplate readings without BTK degradation; endogenous in cells; host or cells: TMD-8
# Procedure: as §1, with “TMD-8 cells” for “HEK-293 cells”, “from 1” for “from 5”, “by 6-fold” for “by 4-fold”, “0.5 μl” for “0.5 ul”, “adding 15” for “adding 50”, “of 6” for “of 72”
# After 6 h treatment, 10 μl 4× lysis buffer was added to each well; the plate was sealed and incubated for 30 min at room temperature on a plate shaker; Once the cells was lysed, 16 μL of cell lysate were transferred to a PE 384-well HTRF detection plate; 4 μL of pre-mixed HTRF antibodies were added to each well; the plate was covered with a plate sealer, and then spinned at 1000 rpm for 1 min, then incubated overnight at room temperature; the results were read on BMG PheraStar with HTRF protocol (337 nm-665 nm-620 nm).
# The IC50 (DC50) value of a compound can be obtained by fitting the following equation
# as §2, with “wherein,” for “Wherein,”
# T1 sequence (Q06187 whole entry): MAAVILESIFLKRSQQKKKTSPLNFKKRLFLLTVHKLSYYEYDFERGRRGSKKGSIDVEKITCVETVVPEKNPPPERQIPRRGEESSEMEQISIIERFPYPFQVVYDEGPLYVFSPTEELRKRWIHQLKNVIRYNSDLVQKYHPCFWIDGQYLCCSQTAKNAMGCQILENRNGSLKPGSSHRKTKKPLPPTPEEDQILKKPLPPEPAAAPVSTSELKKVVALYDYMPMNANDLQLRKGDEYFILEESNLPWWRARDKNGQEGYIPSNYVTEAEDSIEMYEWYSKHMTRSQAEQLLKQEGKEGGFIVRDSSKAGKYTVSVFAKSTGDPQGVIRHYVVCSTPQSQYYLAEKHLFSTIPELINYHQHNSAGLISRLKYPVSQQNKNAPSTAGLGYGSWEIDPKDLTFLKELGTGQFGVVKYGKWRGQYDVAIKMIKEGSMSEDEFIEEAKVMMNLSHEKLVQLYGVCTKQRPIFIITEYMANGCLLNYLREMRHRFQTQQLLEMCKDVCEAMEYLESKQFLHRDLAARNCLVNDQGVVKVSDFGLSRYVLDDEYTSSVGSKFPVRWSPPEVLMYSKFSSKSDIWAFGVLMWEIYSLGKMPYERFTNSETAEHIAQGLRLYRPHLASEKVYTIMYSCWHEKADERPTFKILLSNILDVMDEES
SMILES,DC50 (BTK),IC50 (HEK-293 cells)
"Cc1c([C@@H](C)NC(=O)c2noc(C(C)(C)C)n2)ccc(-c2ncnc3[nH]c4cc(N5CCN(C6CCN(c7ccc(C8CCC(=O)NC8=O)cc7)CC6)CC5)ccc4c23)c1F (stereo partly drawn) [Example 29, 5-(tert-butyl)-N-((1R)-1-(4-(7-(4-(1-(4-(2,6-dioxopiperidin-3-yl)phenyl)piperidin-4-yl)piperazin-1-yl)-9H-pyrimido[4,5-b]indol-4-yl)-3-fluoro-2-methylphenyl)ethyl)-1,2,4-oxadiazole-3-carboxamide]",3.16 nM,> 10000 nM
"Cc1c([C@@H](C)NC(=O)c2noc(C(C)(C)C)n2)ccc(-c2ncnc3[nH]c4cc(N5CCN(CC6CC(c7ccc(C8CCC(=O)NC8=O)cc7)C6)CC5)ccc4c23)c1F (stereo partly drawn) [Example 30, 5-(tert-butyl)-N-((1R)-1-(4-(7-(4-((3-(4-(2,6-dioxopiperidin-3-yl)phenyl)cyclobutyl)methyl)piperazin-1-yl)-9H-pyrimido[4,5-b]indol-4-yl)-3-fluoro-2-methylphenyl)ethyl)-1,2,4-oxadiazole-3-carboxamide]",4.55 nM,> 10000 nM
"Cc1c([C@@H](C)NC(=O)c2noc(C(C)(C)C)n2)ccc(-c2ncnc3[nH]c4cc(N5CCN(C6CC(c7ccc(N8CCC(=O)NC8=O)cc7)C6)CC5)ccc4c23)c1F (stereo partly drawn) [Example 33, (R)-5-(tert-butyl)-N-(1-(4-(7-(4-(3-(4-(2,4-dioxotetrahydropyrimidin-1(2H)-yl)phenyl)cyclobutyl)piperazin-1-yl)-9H-pyrimido[4,5-b]indol-4-yl)-3-fluoro-2-methylphenyl)ethyl)-1,2,4-oxadiazole-3-carboxamide]",3.67 nM,> 10000 nM
"CC(C)(C)c1noc(C(=O)N[C@@H]2CCc3cc(-c4ncnc5[nH]c6cc(N7CCN(CC8CCN(c9ccc(N%10CCC(=O)NC%10=O)cc9)CC8)CC7)ccc6c45)ccc32)n1 [Example 37, (R)-3-(tert-butyl)-N-(5-(7-(4-((1-(4-(2,4-dioxotetrahydropyrimidin-1(2H)-yl)phenyl)piperidin-4-yl)methyl)piperazin-1-yl)-9H-pyrimido[4,5-b]indol-4-yl)-2,3-dihydro-1H-inden-1-yl)-1,2,4-oxadiazole-5-carboxamide]",57.6 nM,> 10000 nM
"Cc1cc2c(cc1N1CCN(CC3CCN(c4ccc(N5CCC(=O)NC5=O)cc4)CC3)CC1)[nH]c1ncnc(-c3cc(CO)c([C@@H](C)NC(=O)c4nc(C(C)(C)C)no4)cc3F)c12 [Example 40, (R)-3-(tert-butyl)-N-(1-(4-(7-(4-((1-(4-(2,4-dioxotetrahydropyrimidin-1(2H)-yl)phenyl)piperidin-4-yl)methyl)piperazin-1-yl)-6-methyl-9H-pyrimido[4,5-b]indol-4-yl)-5-fluoro-2-(hydroxymethyl)phenyl)ethyl)-1,2,4-oxadiazole-5-carboxamide]",2.12 nM,> 10000 nM
"Cc1cc(-c2ncnc3[nH]c4cc(C5CCN(C6CC(c7ccc(C8CCC(=O)NC8=O)cc7)C6)CC5)ncc4c23)ccc1[C@@H](C)NC(=O)c1nc(C(C)(C)C)no1 (stereo partly drawn) [Example 41, 3-(tert-butyl)-N-((1R)-1-(4-(7-(1-(3-(4-(2,6-dioxopiperidin-3-yl)phenyl)cyclobutyl)piperidin-4-yl)-9H-pyrido[3′,4′:4,5]pyrrolo[2,3-d]pyrimidin-4-yl)-2-methylphenyl)ethyl)-1,2,4-oxadiazole-5-carboxamide]",1.85 nM,3350 nM

# The next compounds have a lower DC50 (BTK) than those just listed; values first:
DC50 (BTK),SMILES,IC50 (HEK-293 cells)
1.43 nM,"Cc1c([C@@H](C)NC(=O)c2noc(C(C)(C)C)n2)ccc(-c2ncnc3[nH]c4cc(N5CCN(C6CC(c7ccc([C@@H]8CCC(=O)NC8=O)cc7)C6)CC5)ccc4c23)c1F (stereo partly drawn) [Example 31, 5-(tert-butyl)-N—((R)-1-(4-(7-(4-(3-(4-((S)-2,6-dioxopiperidin-3-yl)phenyl)cyclobutyl)piperazin-1-yl)-9H-pyrimido[4,5-b]indol-4-yl)-3-fluoro-2-methylphenyl)ethyl)-1,2,4-oxadiazole-3-carboxamide]",> 10000 nM
1.23 nM,"Cc1c([C@@H](C)NC(=O)c2noc(C(C)(C)C)n2)ccc(-c2ncnc3[nH]c4cc(N5CCN(C6CCN(c7cccc(C8CCC(=O)NC8=O)c7)CC6)CC5)ccc4c23)c1F (stereo partly drawn) [Example 34, 5-(tert-butyl)-N-((1R)-1-(4-(7-(4-(1-(3-(2,6-dioxopiperidin-3-yl)phenyl)piperidin-4-yl)piperazin-1-yl)-9H-pyrimido[4,5-b]indol-4-yl)-3-fluoro-2-methylphenyl)ethyl)-1,2,4-oxadiazole-3-carboxamide]",1440 nM
0.804 nM,"Cc1c([C@@H](C)NC(=O)c2noc(C(C)(C)C)n2)ccc(-c2ncnc3[nH]c4cc(N5CCC(CN6CCC(c7ccc(C8CCC(=O)NC8=O)cc7)CC6)CC5)ccc4c23)c1F (stereo partly drawn) [Example 36, 5-(tert-butyl)-N-((1R)-1-(4-(7-(4-((4-(4-(2,6-dioxopiperidin-3-yl)phenyl)piperidin-1-yl)methyl)piperidin-1-yl)-9H-pyrimido[4,5-b]indol-4-yl)-3-fluoro-2-methylphenyl)ethyl)-1,2,4-oxadiazole-3-carboxamide]",3410 nM
0.725 nM,"Cc1cc(-c2ncnc3[nH]c4nc(C5CCN(CC6CCN(c7ccc(N8CCC(=O)NC8=O)cc7)CC6)CC5)ccc4c23)ccc1[C@@H](C)NC(=O)c1nc(C(C)(C)C)no1 [Example 39, (R)-3-(tert-butyl)-N-(1-(4-(7-(1-((1-(4-(2,4-dioxotetrahydropyrimidin-1(2H)-yl)phenyl)piperidin-4-yl)methyl)piperidin-4-yl)-9H-pyrido[3′,2′:4,5]pyrrolo[2,3-d]pyrimidin-4-yl)-2-methylphenyl)ethyl)-1,2,4-oxadiazole-5-carboxamide]",4020 nM
0.395 nM,"Cc1cc(-c2ncnc3[nH]c4cc(C5CCN(CC6CCN(c7ccc(N8CCC(=O)NC8=O)cc7)CC6)CC5)cnc4c23)ccc1[C@@H](C)NC(=O)c1nc(C(C)(C)C)no1 [Example 38, (R)-3-(tert-butyl)-N-(1-(4-(7-(1-((1-(4-(2,4-dioxotetrahydropyrimidin-1(2H)-yl)phenyl)piperidin-4-yl)methyl)piperidin-4-yl)-9H-pyrido[2′,3′:4,5]pyrrolo[2,3-d]pyrimidin-4-yl)-2-methylphenyl)ethyl)-1,2,4-oxadiazole-5-carboxamide]",3460 nM
0.309 nM,"Cc1cc(N2CCC(CN3CCN(c4ccc5c(c4)[nH]c4ncnc(-c6ccc([C@@H](C)NC(=O)c7noc(C(C)(C)C)n7)c(C)c6F)c45)CC3)CC2)ccc1N1CCC(=O)NC1=O [Example 28, (R)-5-(tert-butyl)-N-(1-(4-(7-(4-((1-(4-(2,4-dioxotetrahydropyrimidin-1(2H)-yl)-3-methylphenyl)piperidin-4-yl)methyl)piperazin-1-yl)-9H-pyrimido[4,5-b]indol-4-yl)-3-fluoro-2-methylphenyl)ethyl)-1,2,4-oxadiazole-3-carboxamide]",> 10000 nM
0.15 nM,"Cc1cc(-c2ncnc3[nH]c4cc(N5CCN(CC6CCN(c7ccc(N8CCC(=O)NC8=O)cc7)CC6)CC5)ccc4c23)ccc1[C@@H](C)NC(=O)c1nc(C2(C)CC2)no1 [Example 35, (R)—N-(1-(4-(7-(4-((1-(4-(2,4-dioxotetrahydropyrimidin-1(2H)-yl)phenyl)piperidin-4-yl)methyl)piperazin-1-yl)-9H-pyrimido[4,5-b]indol-4-yl)-2-methylphenyl)ethyl)-3-(1-methylcyclopropyl)-1,2,4-oxadiazole-5-carboxamide]",> 10000 nM
